# Earlier results as cited in patent publication US12319654B2, “Inert nanocapsules” (THE UNIVERSITY COURT OF THE UNIVERSITY OF EDINBURGH, priority 2018, dated 2025).
# Settings: free anion
smiles,measurement,value
[O]=[99Tc](=[O])(=[O])[O-] [^99mTcO4^−],Clearance time,ca. 30 mins
